Assay results as given in ChEMBL document CHEMBL1201862, “PubChem BioAssay data set” (2004).
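Five compound concentrations were applied to cells in 96-well plates for 48 hours; endpoints were derived by simple linear interpolation of the resulting dose-response curve. GI50 marks 50% less growth.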 Active and inactive are the calls of the source. No stated cut-off is given here; in the data, active = GI50 up to about 1.1 µM and inactive = higher.

Legend:
Experiment in all cases: inhibition of tumour cell growth, NCI panel, 48 h
UACC-257 = tested on: UACC-257
NCI-H226 = tested on: NCI-H226
ACHN = tested on: ACHN
OVCAR-3 = tested on: OVCAR-3
SR = tested on: SR
HL-60 = tested on: HL-60
HOP-62 = tested on: HOP-62
UO-31 = tested on: UO-31
HCT-15 = tested on: HCT-15
SF-268 = tested on: SF-268
RXF 393 = tested on: RXF 393
K562 = tested on: K562
UACC-62 = tested on: UACC-62
OVCAR-8 = tested on: OVCAR-8
DU-145 = tested on: DU-145
786-0 = tested on: 786-0
HOP-92 = tested on: HOP-92

Row | SMILES | GI50 (UACC-257) | GI50 (NCI-H226) | GI50 (ACHN) | GI50 (OVCAR-3) | GI50 (SR) | GI50 (HL-60) | GI50 (HOP-62) | GI50 (UO-31) | GI50 (HCT-15) | GI50 (SF-268) | GI50 (RXF 393) | GI50 (K562) | GI50 (UACC-62) | GI50 (OVCAR-8) | GI50 (DU-145) | GI50 (786-0) | GI50 (HOP-92)
1 | O=C(N/C(=C\c1ccccc1)c1nc2ccccc2c(=O)o1)c1ccccc1 | > 43.1 µM (inactive) | > 67.6 µM (inactive) | 31 µM (inactive) | > 70.5 µM (inactive) | > 100 µM (inactive) | > 100 µM (inactive) | > 52.5 µM (inactive) | > 41.6 µM (inactive) | 97.1 µM | 23.8 µM (inactive) | > 62.5 µM (inactive) | > 100 µM (inactive) | 30.1 µM (inactive) | > 57.7 µM (inactive) | > 76.7 µM (inactive) | 41.7 µM (inactive) | –
2 | [O-]c1c[n+](CC[n+]2cc([O-])on2)no1 | > 100 µM (inactive) | – | > 100 µM (inactive) | > 100 µM (inactive) | > 100 µM (inactive) | > 100 µM (inactive) | > 100 µM (inactive) | > 100 µM (inactive) | > 100 µM | > 100 µM (inactive) | > 100 µM (inactive) | > 100 µM (inactive) | > 100 µM (inactive) | > 100 µM (inactive) | > 100 µM (inactive) | > 100 µM (inactive) | > 100 µM (inactive)
3 | COc1ccc(-c2nc3ccccc3c(=S)n2OC(C)=O)cc1 | 13.1 µM (inactive) | 7.85 µM (inactive) | 2.99 µM (inactive) | – | – | 1.04 µM (active) | 4.76 µM (inactive) | 1.91 µM (inactive) | 0.755 µM | 2.99 µM (inactive) | 8.75 µM (inactive) | 0.836 µM (active) | 2.8 µM (inactive) | 3.1 µM (inactive) | 5.11 µM (inactive) | 3.09 µM (inactive) | > 25 µM (inactive)
4 | O=C1NC(N2CCOCC2)=N/C1=C\c1ccccc1O | > 100 µM (inactive) | > 100 µM (inactive) | > 100 µM (inactive) | > 100 µM (inactive) | – | 58.1 µM (inactive) | > 100 µM (inactive) | > 100 µM (inactive) | > 100 µM | > 100 µM (inactive) | > 100 µM (inactive) | > 100 µM (inactive) | – | > 100 µM (inactive) | > 100 µM (inactive) | > 100 µM (inactive) | > 100 µM (inactive)
5 | O=C(Cn1cc(F)c(=O)[nH]c1=O)C12CC3CC(CC(C3)C1)C2 | > 100 µM (inactive) | – | > 100 µM (inactive) | > 100 µM (inactive) | > 100 µM (inactive) | > 100 µM (inactive) | > 100 µM (inactive) | > 100 µM (inactive) | > 100 µM | > 100 µM (inactive) | > 100 µM (inactive) | > 100 µM (inactive) | > 100 µM (inactive) | > 100 µM (inactive) | > 100 µM (inactive) | > 100 µM (inactive) | –
6 | N#C/C(C(=O)Nc1ccc(Cl)cc1)=C(/N)N1CCOCC1 | 47.4 µM (inactive) | > 100 µM (inactive) | > 100 µM (inactive) | 96.8 µM (inactive) | > 100 µM (inactive) | – | 73.3 µM (inactive) | 91 µM (inactive) | > 100 µM | – | – | 61.2 µM (inactive) | 77.8 µM (inactive) | > 100 µM (inactive) | 94 µM (inactive) | > 100 µM (inactive) | > 100 µM (inactive)
7 | COC(=O)[C@@H](N1C(=O)c2ccccc2C1=O)C1(C)CC(Cl)=NO1 (some centres not stated) | > 100 µM (inactive) | 38.8 µM (inactive) | > 100 µM (inactive) | > 100 µM (inactive) | – | – | 17 µM (inactive) | > 100 µM (inactive) | > 100 µM | 29.3 µM (inactive) | 41.5 µM (inactive) | > 100 µM (inactive) | > 100 µM (inactive) | 19.1 µM (inactive) | 44 µM (inactive) | 34.8 µM (inactive) | –
8 | COC(=N)c1ncn(Cc2ccccc2)c1N | > 100 µM (inactive) | > 100 µM (inactive) | > 100 µM (inactive) | > 100 µM (inactive) | – | – | > 100 µM (inactive) | – | > 100 µM | > 100 µM (inactive) | > 100 µM (inactive) | > 100 µM (inactive) | > 100 µM (inactive) | > 100 µM (inactive) | > 100 µM (inactive) | > 100 µM (inactive) | > 100 µM (inactive)
9 | COc1ccc2nc(-c3ccc(O)cc3)sc2c1 | 21.6 µM (inactive) | 23.5 µM (inactive) | 18 µM (inactive) | 19.6 µM (inactive) | 4.86 µM (inactive) | 24 µM (inactive) | – | 16.1 µM (inactive) | 17.9 µM | 21.1 µM (inactive) | 20.1 µM (inactive) | 36.2 µM (inactive) | 21.7 µM (inactive) | 20.7 µM (inactive) | 34.7 µM (inactive) | 15.6 µM (inactive) | –
10 | O=[N+]([O-])c1cccc2nccc(NCCCO)c12 | 11.4 µM (inactive) | 23 µM (inactive) | 14.3 µM (inactive) | 14.6 µM (inactive) | 7.66 µM (inactive) | 11.6 µM (inactive) | 17.5 µM (inactive) | 16 µM (inactive) | 8.11 µM | 11.6 µM (inactive) | 6.17 µM (inactive) | 13.2 µM (inactive) | 8.57 µM (inactive) | 14.5 µM (inactive) | 16.8 µM (inactive) | 17.7 µM (inactive) | –
11 | N#Cc1c2c(c(N)oc1=O)C(c1ccccc1)CC(=O)N2 (configuration not stated) | > 100 µM (inactive) | > 100 µM (inactive) | > 100 µM (inactive) | > 100 µM (inactive) | – | > 100 µM (inactive) | > 100 µM (inactive) | > 100 µM (inactive) | > 100 µM | > 100 µM (inactive) | > 100 µM (inactive) | > 100 µM (inactive) | > 100 µM (inactive) | > 100 µM (inactive) | > 100 µM (inactive) | > 100 µM (inactive) | > 100 µM (inactive)
12 | O=C(N/N=C(COc1ccccc1Cl)\N=C\c1cccnc1)c1ccncc1 | > 100 µM (inactive) | > 100 µM (inactive) | > 100 µM (inactive) | > 100 µM (inactive) | – | > 100 µM (inactive) | > 100 µM (inactive) | – | > 100 µM | > 100 µM (inactive) | > 100 µM (inactive) | > 100 µM (inactive) | > 100 µM (inactive) | > 100 µM (inactive) | > 100 µM (inactive) | > 100 µM (inactive) | –
13 | COc1ccc2cc(C(C)C(=O)N3C(=O)OCC3(C)C)ccc2c1 (configuration not stated) | > 100 µM (inactive) | > 100 µM (inactive) | > 100 µM (inactive) | > 100 µM (inactive) | > 100 µM (inactive) | > 100 µM (inactive) | > 100 µM (inactive) | > 100 µM (inactive) | > 100 µM | > 100 µM (inactive) | – | > 100 µM (inactive) | > 100 µM (inactive) | > 100 µM (inactive) | > 100 µM (inactive) | > 100 µM (inactive) | > 100 µM (inactive)
14 | c1cc(Sc2nc(Sc3ccncc3)nc(Sc3ccncc3)n2)ccn1 | > 100 µM (inactive) | > 100 µM (inactive) | > 100 µM (inactive) | > 100 µM (inactive) | – | > 100 µM (inactive) | > 100 µM (inactive) | > 100 µM (inactive) | > 100 µM | > 100 µM (inactive) | > 100 µM (inactive) | > 100 µM (inactive) | > 100 µM (inactive) | > 100 µM (inactive) | > 100 µM (inactive) | > 100 µM (inactive) | > 100 µM (inactive)
15 | CC(C)c1ccc2c(c1)C=C1OC(=O)[C@]3(C)CCC[C@@]2(C)C13 (some centres not stated) | > 100 µM (inactive) | > 100 µM (inactive) | > 100 µM (inactive) | > 100 µM (inactive) | > 100 µM (inactive) | 44.2 µM (inactive) | > 100 µM (inactive) | > 100 µM (inactive) | > 100 µM | > 100 µM (inactive) | > 100 µM (inactive) | > 100 µM (inactive) | > 100 µM (inactive) | > 100 µM (inactive) | > 100 µM (inactive) | > 100 µM (inactive) | –
16 | [O-][Cl+3]([O-])([O-])O.c1ccc(C2=NN2c2ccccc2)cc1 | 59.6 µM (inactive) | 14.3 µM (inactive) | 0.927 µM (active) | 84.9 µM (inactive) | 26.7 µM (inactive) | – | > 100 µM (inactive) | 15.9 µM (inactive) | 7.89 µM | 21.8 µM (inactive) | > 100 µM (inactive) | 2.32 µM (inactive) | 1.21 µM (inactive) | > 100 µM (inactive) | 5.89 µM (inactive) | – | > 100 µM (inactive)
17 | COC(=O)C(C(=O)C(=O)NC1Nc2ccc(C)cc2S1)c1nc2ccc(Cl)cc2nc1O (configuration not stated) | > 100 µM (inactive) | > 100 µM (inactive) | > 100 µM (inactive) | > 100 µM (inactive) | – | > 100 µM (inactive) | > 100 µM (inactive) | > 100 µM (inactive) | > 100 µM | > 100 µM (inactive) | > 100 µM (inactive) | > 100 µM (inactive) | > 100 µM (inactive) | > 100 µM (inactive) | – | > 100 µM (inactive) | 82.4 µM (inactive)
18 | COc1cc(/C=C2\CCc3ccccc3C2=O)ccc1O | – | – | 26.4 µM (inactive) | 19.6 µM (inactive) | 11.2 µM (inactive) | 4.24 µM (inactive) | – | 14.3 µM (inactive) | 22.4 µM | 27.1 µM (inactive) | 12 µM (inactive) | 16.8 µM (inactive) | > 10 µM (inactive) | 19.1 µM (inactive) | – | 13.7 µM (inactive) | 22.6 µM (inactive)
19 | O=C(CSc1nc2ccc([N+](=O)[O-])cc2s1)c1ccc2ccccc2c1 | > 100 µM (inactive) | > 100 µM (inactive) | > 100 µM (inactive) | > 100 µM (inactive) | – | > 100 µM (inactive) | > 100 µM (inactive) | > 100 µM (inactive) | > 100 µM | > 100 µM (inactive) | > 100 µM (inactive) | 84.9 µM (inactive) | > 100 µM (inactive) | 37.4 µM (inactive) | > 100 µM (inactive) | 34 µM (inactive) | 57.7 µM (inactive)
